Measured values as given in patent publication US20140073637A1, “AMINO-SUBSTITUTED-ALKYLOXY-BENZO[E]PYRIDO[4,3-B]INDOLE DERIVATIVES AS NEW POTENT KINASE INHIBITORS” (INSTITUT CURIE, priority 2011, published 2014).
Where two headings read alike, the source gives them in different places.

Assays:
HeLa cells = test: Cell viability / antiproliferative assay; format: cell-based; conditions: Homo sapiens, HeLa
Excerpt: Antiproliferative assays with HeLa cells have been performed with the preferred compounds and compared to the C1 and C2. The average of three independent experiments is shown. IC50 obtained with C1 and C2 were previously reported in Hoang et al, 2009, and are indicated for comparison. The lateral chain of each molecule is recalled, knowing that all the molecules have an oxo group at position 11. IC50 are indicated, i.e. the concentration that induced 50% death.
H358, H322 (lung cancer cells), U373 (glioblastomes) and HeLa ([…]) were grown in DMEM (1.5 g/L glucose) whereas HL60 (human myeloid cell line) cells were in RPMI 1640. U2OS (a human osteosarcoma cell line) cells were cultured in McCoy's Medium 5 A and liver cells (SK Hep 1) in DMEM (4 g/L glucose, (Gibco-Invitrogen). Media (Gibco-Invitrogen), were supplemented with 10% heat-inactivated foetal bovine serum (Gibco-Invitrogen), L-glutamine (2 mM), penicillin (100 UI/ml) and streptomycin (100 μg/ml).
Cell proliferation assays were conducted in 96 well culture plates. Assays were run in triplicate. Cell viability was estimated upon 72 h of treatment with varying concentrations of compound by addition of CellTiter 96Queous one Solution Reagent (Promega) directly to culture wells under conditions defined by the manufacturer.

Aurora A = biological target: T1, Aurora A (Homo sapiens, UniProt O14965); test: Kinase profiling in vitro at 1 μM; format: biochemical; conditions: for remaining activity at 1 µM / effect on kinase activity (FIG. 2, in words): Aurora A; for remaining activity at 1 µM: compound at 1 μM, read-out: percentage of remaining activity of recombinant kinase; for effect on kinase activity (FIG. 2, in words): recombinant kinase in vitro
T1 sequence (O14965 1-403): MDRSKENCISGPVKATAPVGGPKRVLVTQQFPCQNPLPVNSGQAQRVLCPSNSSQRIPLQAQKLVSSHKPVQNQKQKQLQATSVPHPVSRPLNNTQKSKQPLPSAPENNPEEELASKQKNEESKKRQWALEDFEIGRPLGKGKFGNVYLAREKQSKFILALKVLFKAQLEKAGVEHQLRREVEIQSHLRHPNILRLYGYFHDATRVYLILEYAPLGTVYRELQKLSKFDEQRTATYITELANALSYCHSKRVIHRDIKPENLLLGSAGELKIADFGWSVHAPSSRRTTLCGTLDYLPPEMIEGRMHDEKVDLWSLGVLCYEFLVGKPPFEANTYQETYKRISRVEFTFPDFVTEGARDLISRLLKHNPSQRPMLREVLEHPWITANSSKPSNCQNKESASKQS
Procedure: (§1) Assays were run in vitro against recombinant kinases. The activity is reported for each kinase, grey histograms for CH21, white for C14 and gradation grey for C1. […] Therefore, C1 and C14 affect differently the Aurora kinase family.
The specificity of C14 was tested, in vitro, against 121 kinases representative of the kinome. Assays run in duplicate, at the concentration of 1 μM, were performed by MRC (Dundee, UK). Results are represented in FIG. 1. The main targets are highlighted in FIG. 1B.
In addition, the percentage of remaining activity of recombinant kinases Aurora kinases A and B and Checkpoint kinases 1 and 2 at the concentration of 1 μM of C1, C2 and C14 have been determined.
(§2) The profiling was performed at the MRC (Dundee University), in duplicate, on a set of 121 kinases. The panel is representative of the major different classes of kinases. Compounds were used at the concentration of 1 μM. In vitro, IC50 were determined on recombinant kinases by Reaction biology Corp (USA).

RSK2 = RSK2 (Homo sapiens, UniProt P51812); test: In vitro assay against recombinant kinases (FIG. 2); format: biochemical
Chain of RSK2 (P51812 whole entry): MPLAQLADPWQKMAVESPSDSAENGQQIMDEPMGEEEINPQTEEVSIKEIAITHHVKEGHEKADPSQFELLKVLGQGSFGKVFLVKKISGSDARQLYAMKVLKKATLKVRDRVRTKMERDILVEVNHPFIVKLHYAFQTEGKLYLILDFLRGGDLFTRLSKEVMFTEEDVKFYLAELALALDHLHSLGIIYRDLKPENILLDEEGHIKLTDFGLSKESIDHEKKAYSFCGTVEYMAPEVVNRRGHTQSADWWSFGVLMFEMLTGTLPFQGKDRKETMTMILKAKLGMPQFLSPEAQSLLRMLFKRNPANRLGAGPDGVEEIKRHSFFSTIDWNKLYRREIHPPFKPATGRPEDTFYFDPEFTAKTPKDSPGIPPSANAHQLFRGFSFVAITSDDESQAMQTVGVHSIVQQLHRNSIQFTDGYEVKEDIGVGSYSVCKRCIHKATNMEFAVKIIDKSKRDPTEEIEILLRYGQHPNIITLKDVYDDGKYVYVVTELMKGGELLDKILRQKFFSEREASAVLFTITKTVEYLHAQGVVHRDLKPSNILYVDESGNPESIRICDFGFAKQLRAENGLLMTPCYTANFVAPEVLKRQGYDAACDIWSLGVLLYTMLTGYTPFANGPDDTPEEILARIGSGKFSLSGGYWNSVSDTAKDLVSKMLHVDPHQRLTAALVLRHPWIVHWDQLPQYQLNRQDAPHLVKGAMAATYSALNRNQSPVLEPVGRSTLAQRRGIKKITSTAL
Procedure: as §1, §2

Aurora B = Aurora B (Homo sapiens, UniProt Q96GD4); test: Aurora B inhibition in cells: Histone H3 Ser10 phosphorylation by western blotting and immunofluorescence; format: cell-based; set-up: endogenous in cells; host or cells: U2OS (human osteosarcoma); HeLa also used for the maleate salts; key to Aurora B inhibition: +++: very efficient inhibition; −: no inhibition; conditions: for Aurora B inhibition in cellulo (Histone H3 phosphorylation, in words): U2OS mitotic extracts, 1 μM overnight, western blotting (FIG. 3); for Aurora B inhibition: cells, Histone H3 Ser10 phosphorylation, western blotting and immunofluorescence, compounds 1 μM
Chain of Aurora B (Q96GD4 whole entry): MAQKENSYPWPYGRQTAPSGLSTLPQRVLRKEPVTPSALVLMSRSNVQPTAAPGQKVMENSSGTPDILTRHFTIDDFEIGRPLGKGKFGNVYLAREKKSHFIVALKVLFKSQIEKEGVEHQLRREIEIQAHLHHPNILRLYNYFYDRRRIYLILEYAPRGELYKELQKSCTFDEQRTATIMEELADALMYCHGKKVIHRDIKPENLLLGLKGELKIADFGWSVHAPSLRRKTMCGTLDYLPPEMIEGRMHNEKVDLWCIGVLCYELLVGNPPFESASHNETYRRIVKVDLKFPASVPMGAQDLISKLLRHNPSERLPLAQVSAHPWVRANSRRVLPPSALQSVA
Procedure: Actin is used as control of quantity. Cells were incubated overnight in the presence of either C1, or C2 or CH21 or C14 or DMSO(C: control). All compounds were tested at 1 μM. Proteins were detected by western blotting.
Cells were incubated with the different molecules and Aurora B inhibition is estimated by western blotting (WB) and immuno fluorescent experiments. Histone H3 phosphorylated on Ser10 is used as a marker of Aurora B kinase activity and actin as an internal control. Each WB signal is compared to the control in the absence of compound. The efficiency estimated by WB is indicated by +++: very efficient inhibition to −: no inhibition. Immunofluorescent labelling of a mitotic cell by Histone H3 illustrates Aurora B kinase activity. However immunofluorescence is less sensitive than WB. Active molecules are underlined by a square and the intensity of the line indicates the efficiency of inhibition.
FIG. 10A: Immunofluorescence with phospho-Ser10-Histone H3 antibodies. Either the percentage of positive phospho-Ser10-Histone H3 is indicated or a representative mitosis shown. […] Immunofluorescent assays were realized with a specific phospho-antibody and mitotic U2OS cells are recognized by their DNA content stained with Hoechst. On the right, a representative cell or the percentage of H3-S10-P labelled mitosis.
(§3) FIG. 10B: Immunoblotting analysis of histone H3 phosphorylation. U2OS cells were incubated overnight with Nocodazole (50 nM) in the presence of either DMSO (Co) or Compounds (1 μM). Cells were then collected and lyzed. Identical amounts of the lyzed cell samples were run on 18% acrylamide gel containing SDS.
as §3, with “FIGS. 11B and 11C:” for “FIG. 10B:”, “U2OS and HeLa” for “U2OS”
Cells were incubated with the different molecules and Aurora B inhibition is estimated by western blotting and immunofluorescent experiments. Histone H3 phosphorylated on Ser10 is used as a marker of Aurora B kinase activity and actin as an internal control. Results are represented in FIGS. 4 and 10 and Table 3.
Cells were treated by compounds, harvested and lyzed in 9M urea then supplemented with Laemmli sample buffer. Cell extracts were subjected to SDS-PAGE and transferred to nitrocellulose filter (GE Healthcare). After blocking with 5% non-fat milk in PBS for at least 1 hour, the membranes were incubated with the primary antibodies. The following antibodies were used: phospho-Histone H3 Ser10 (1:2000, Upstate Biotechnology), anti LAST1 (Cell signalling), anti Aurora B (epitomics) and anti alpha-tubulin (Sigma) Anti-rabbit horseradish peroxidase (1:5000, GE Healthcare) was used as secondary antibodies. Bands were visualized by ECL technique (Amersham Bioscience).
Cells were seeded on glass coverslips and treated by compounds (1 μM) overnight. After treatment, cells were fixed in 4% formaldhehyde at 37° C. for 15 minutes, then permeabilized for 5 minutes with Triton X-100 in PBS.

[1] = 72 h, HeLa (Cervix), 72 h of treatment, read-out: IC50 (cell line viability)

| IC50 (HeLa cells; [1]) | remaining activity at 1 µM (Aurora A) | effect on kinase activity (FIG. 2, in words) (Aurora A) | effect on kinase activity (FIG. 2, in words) (RSK2) | Aurora B inhibition in cellulo (Histone H3 phosphorylation, in words) (Aurora B) | Aurora B inhibition (Aurora B) | remaining activity (Aurora A; at 1 μM) | SMILES | IC50 (HeLa cells; HeLa cells, average of three independent experiments, concentration that induced 50% death, read-out: IC50 (in nM), antiproliferative assay) |
| --- | --- | --- | --- | --- | --- | --- | --- | --- |
| 960 nM | 7% | highly inhibited | highly inhibited | inhibit efficiently | +++ |  | CCc1c[nH]c(=O)c2c1[nH]c1ccc3cc(OC)ccc3c12 [Compound C1, reference compound] |  |
| 110 nM | 76% | not affected | not affected | inhibit efficiently | +++ | 76% | Cc1c[nH]c(=O)c2c1[nH]c1ccc3cc(OCCN(C)C)ccc3c12 [Compound C14, 3-(2-N,N-Dimethylaminoethoxy)-8-methyl-7H,10H-benzo[e]pyrido(4,3-b)indol-11-one] | 170 ± 82 nM |

| SMILES | IC50 (HeLa cells; [1]) | remaining activity at 1 µM (Aurora A) | effect on kinase activity (FIG. 2, in words) (Aurora A) | effect on kinase activity (FIG. 2, in words) (RSK2) | Aurora B inhibition in cellulo (Histone H3 phosphorylation, in words) (Aurora B) | Aurora B inhibition (Aurora B) | remaining activity (Aurora A; at 1 μM) | IC50 (HeLa cells; HeLa cells, average of three independent experiments, concentration that induced 50% death, read-out: IC50 (in nM), antiproliferative assay) |
| --- | --- | --- | --- | --- | --- | --- | --- | --- |
| Cc1cncc2c1[nH]c1ccc3cc(OCCN(C)C)ccc3c12 [CH21, 3-(2-N,N-dimethylaminoethyloxy)-8-methyl-7H-benzo[e]pyrido(4,3-b)indole] | 350 nM |  | None of these kinases were significantly affected | None of these kinases were significantly affected | no effect | − |  |  |
